# From patent US4048299A, “Anticaries confectionaries and oral health products” (William Wrigley, Jr. Co., priority 1970, dated 1977)
# Tests used:
# [1] = In vivo caries evaluation, Osborne-Mendel strain 1 rat; parameters: species or system rat (Osborne-Mendel strain 1); Caries Score, Mean Incidence / Caries Score, Mean Extent: scale not given here; settings: Table II, 90 days
# From the text: (§1) Standard laboratory techniques were used to complie the data presented. In each case the aldehyde was incorporated into each specimen's food in a one percent, by weight, quantity, over a period of several weeks. In all cases, caries reduction was noted.
# (§2) The aldehydes tested in vivo were pyruvaldehyde, d,1-glyceraldehyde, crystalline dimer, glycolaldehyde, octanaldehyde, nonanaldehyde, decanaldehyde, undecylenic aldehyde, and lauric aldehyde. The polyaldehydes tested were dialdehyde starch, dialdehyde starch 50 percent oxidized, dialdehyde starch 90 percent oxidized, and dialdehyde galactomannan gum.
# ^(a) Agents were incorporated in the diet at a 1 percent level.
# [2] = system: Lactobacillus casei ATCC 4646; test: Acid production inhibition by aldehydes in product vehicles, broth-tube technique; assay type: cell-based; settings: 1 to 5 percent aldehyde
# Description: (§3) Other in vitro evaluations utilized a broth tube analysis of representative anticaries aldehydes incorporated in the vehicles of this invention against cultures of acid producing microorganisms normally present in the mouth. Standard laboratory procedures were utilized throughout to evaluate the acid production inhibition and growth inhibition over the incubation time of up to 24 hours.
# (§4) (a)Measured by broth-tube technique.
# (§5) In formulating Tables XIII - XIX representative aldehydes having anticaries activity were selected from those tested as summarized in Tables I - XII and incorporated in seven representative types of products. The products included dextrose and sucrose syrups, obtained commercially in food grades, and compressed candy, hard candy, mouthwash, toothpaste and toothpowder. The five latter products also employed food grade and reagent grade ingredients. These products were formulated by well-known and representative recipes for each type of product. The products were formed in batches of approximately 1 pound or 1 liter and contained all their normal constitutents. Aliquots of each products were blended with one of each of the representative aldehydes selected except in the case of hard candy.
# (§6) Aliquots of the aldehyde incorporating sugar syrups, confectioneries, and mouthwash formulations were added directly to assay flasks and mixed or dissolved as required. Aqueous extracts of the aldehyde incorporated in toothpaste and toothpowder were prepared and aliquots of the filtrate were added to the assay flasks.
# (§7) The assay flasks contained the necessary components for a normal growth response from the organisms employed, Lactobacillus casei ATCC 4646, originally a human oral isolate, Streptococcus spp. K1-R, human caries isolate, and a mixed oral microbial population obtained fresh from saliva on the morning prior to the initiation of each assay incubation period. The assay flask medium was dissolved in distilled water in which was added an equal volume of filter sterilized human saliva to yield a 50 percent saliva-medium combination. The medium contained all normal ingredients such as yeast extract, proteose peptone number 3 (a proprietary formula of Difco Laboratories, Detroit, Michigan) monopotassium phosphate, Tween 80 (polyoxethylene sorbitan monoleate) and water, except a carbon source. This was supplied by the aliquot of the sucrose syrup, dextrose syrup, sucrose in the compressed candy tablet and sucrose in the hard candy product. In addition, an aliquot of sucrose solution concentrate was added to the assay flask as a carbon source for evaluation of mouthwash, toothpaste, and toothpowder vehicles.
# (§8) The lower aldehydes such as glycolaldehyde, crystalline dimer; pyruvaldehyde, aqueous syrup; d,1-glyceraldehyde solution and crystalline dimer; and glutaraldehyde, employed as a 50 percent aqueous solution, are water soluble and were employed directly either as powders or aqueous solutions. The C8 to C12, longer chain aliphatic aldehydes, of which decyl and dodecyl (lauric) were selected as representative, are oil soluble and are prepared and added to the products as emulsions with four parts of Tween 20, polyoxethylene sorbitan monolaurate. The aldehyde concentrations in the products were randomly chosen between 1 to 5 percent by weight. Limits for the concentrations were selected to coincide with the data presented in Tables I - XII in order to verify that the anticaries activity of the aldehydes in the product vehicles tested was equivalent to the activity previously established for the aldehydes alone.
# Streptococcus spp. KI-R [3] = test: as above; assay type: cell-based; settings: 1 to 5 percent aldehyde
# Description: as §3, §4, §5, §6, §7, §8
# [4] = system: Mixed human oral microorganisms; test: as above; assay type: cell-based; settings: 1 to 5 percent aldehyde
# Description: as §3, §4, §5, §6, §7, §8
# Streptococcus spp. KI-R [5] = test: Growth inhibition by aldehydes in product vehicles, pour-plate technique; assay type: cell-based; settings: 1 to 5 percent aldehyde
# Description: as §3
# (b)Measured by pour-plate technique.
# as §5, §6, §7, §8
# [6] = In vivo caries evaluation, laboratory animals (summary); settings: one percent level in diet
# From the text: as §1, §2
# [7] = Student's test, 95 percent confidence limit
# [8] = in compressed candy tablet, 2 h incubation
# [9] = in compressed candy tablet, 5 h incubation
# [10] = in compressed candy tablet, 24 h incubation
# [11] = in dextrose syrup, 2 h incubation
# [12] = in dextrose syrup, 5 h incubation
# [13] = in dextrose syrup, 24 h incubation
# [14] = in sucrose syrup, 2 h incubation
# [15] = in sucrose syrup, 5 h incubation
# [16] = in sucrose syrup, 24 h incubation
# [17] = in toothpaste (aqueous extract), 2 h incubation
# [18] = in toothpaste (aqueous extract), 5 h incubation
# [19] = in toothpaste (aqueous extract), 24 h incubation
smiles,measurement,setting,value
CCCCCCCCCC=O [Decanaldehyde],"Caries Score, Mean Incidence","[1]; 1 percent in diet, RCD control 19.0 (octan-), 14.1 (nonan-), 17.6 (decan-), 22.3 (undecylenic)",10.4
same,"Caries Score, Mean Extent","[1]; 1 percent in diet, RCD control 49.6 (octan-), 34.3 (nonan-), 46.0 (decan-), 54.6 (undecylenic)",24.1
same,"Caries Extent Reduction, statistical evaluation",[1]; [7],Significant
same,"Caries Incidence Reduction, statistical evaluation",[1]; [7],Significant
same,Acid Production Inhibition,[2]; [8],0 Per Cent
same,Acid Production Inhibition,[2]; [9],67 Per Cent
same,Acid Production Inhibition,[2]; [10],97 Per Cent
same,Acid Production Inhibition,[2]; [11],67 Per Cent
same,Acid Production Inhibition,[2]; [12],77 Per Cent
same,Acid Production Inhibition,[2]; [13],96 Per Cent
same,Acid Production Inhibition,[2]; [14],0 Per cent
same,Acid Production Inhibition,[2]; [15],95 Per cent
same,Acid Production Inhibition,[2]; [16],99 Per cent
same,Acid Production Inhibition,[2]; [17],80 Per cent
same,Acid Production Inhibition,[2]; [18],80 Per cent
same,Acid Production Inhibition,[2]; [19],83 Per cent
same,Acid Production Inhibition,Streptococcus spp. KI-R [3]; [8],50 Per Cent
same,Acid Production Inhibition,Streptococcus spp. KI-R [3]; [9],85 Per Cent
same,Acid Production Inhibition,Streptococcus spp. KI-R [3]; [10],98 Per Cent
same,Acid Production Inhibition,Streptococcus spp. KI-R [3]; [11],35 Per Cent
same,Acid Production Inhibition,Streptococcus spp. KI-R [3]; [12],91 Per Cent
same,Acid Production Inhibition,Streptococcus spp. KI-R [3]; [13],89 Per Cent
same,Acid Production Inhibition,Streptococcus spp. KI-R [3]; [14],75 Per cent
same,Acid Production Inhibition,Streptococcus spp. KI-R [3]; [15],98 Per cent
same,Acid Production Inhibition,Streptococcus spp. KI-R [3]; [16],100 Per cent
same,Acid Production Inhibition,Streptococcus spp. KI-R [3]; [17],40 Per cent
same,Acid Production Inhibition,Streptococcus spp. KI-R [3]; [18],100 Per cent
same,Acid Production Inhibition,Streptococcus spp. KI-R [3]; [19],67 Per cent
same,Acid Production Inhibition,[4]; [8],100 Per Cent
same,Acid Production Inhibition,[4]; [9],100 Per Cent
same,Acid Production Inhibition,[4]; [10],19 Per Cent
same,Acid Production Inhibition,[4]; [11],0 Per Cent
same,Acid Production Inhibition,[4]; [12],95 Per Cent
same,Acid Production Inhibition,[4]; [13],91 Per Cent
same,Acid Production Inhibition,[4]; [14],78 Per cent
same,Acid Production Inhibition,[4]; [15],94 Per cent
same,Acid Production Inhibition,[4]; [16],95 Per cent
same,Acid Production Inhibition,[4]; [17],0 Per cent
same,Acid Production Inhibition,[4]; [18],0 Per cent
same,Acid Production Inhibition,[4]; [19],0 Per cent
same,Growth Inhibition,Streptococcus spp. KI-R [5]; [8],N.S.
same,Growth Inhibition,Streptococcus spp. KI-R [5]; [9],N.S.
same,Growth Inhibition,Streptococcus spp. KI-R [5]; [10],N.S.
same,Growth Inhibition,Streptococcus spp. KI-R [5]; [11],100 Per Cent
same,Growth Inhibition,Streptococcus spp. KI-R [5]; [12],100 Per Cent
same,Growth Inhibition,Streptococcus spp. KI-R [5]; [13],100 Per Cent
same,Growth Inhibition,Streptococcus spp. KI-R [5]; [14],> 99.99 Per cent
same,Growth Inhibition,Streptococcus spp. KI-R [5]; [15],> 99.99 Per cent
same,Growth Inhibition,Streptococcus spp. KI-R [5]; [16],N.S.
same,Growth Inhibition,Streptococcus spp. KI-R [5]; [17],0 Per cent
same,Growth Inhibition,Streptococcus spp. KI-R [5]; [18],N.S.
same,Growth Inhibition,Streptococcus spp. KI-R [5]; [19],N.S.
same,Anticaries effect in laboratory animals,[6],significant anticaries activity
